Results as given in paper PMC6009892, “A novel series of pyrazole-platinum(II) complexes as potential anti-cancer agents that induce cell cycle arrest and apoptosis in breast cancer cells” (Journal of Enzyme Inhibition and Medicinal Chemistry, 2018).
Where two headings read alike, the source gives them in different places.

Tests used:
Format in all cases: cell-based, human
[1] = test system: caspase-8 in MDA-MB-231 breast cancer cells; test: FLICA caspase-8 activity, flow cytometry, MDA-MB-231; conditions: MDA-MB-231, 20 μM, 24 h
Protocol: (§1) Caspase-8 activity was measured using the FLICA Caspase 8 Assay Kit (ImmunoChemistry Technologies, Bloomington, MN, USA), according to the manufacturer’s instructions. Briefly, cultured MCF-7 and MDA-MB-231 breast cancer cells (1 × 10^6) were washed with cold PBS twice and re-suspended in buffer. We added 5 µl of diluted FLICA reagent and 2 µl of Hoechst 33342 to 93 µl of cell suspension and mixed by pipetting. The cells were incubated for 60 min at 37°C. After incubation, the cells were washed twice in 400 µl of apoptosis wash buffer and centrifuged at 300 × g. After the last wash, we re-suspended the cells in 100 µl of apoptosis wash buffer supplemented with 10 µg/ml PI. Analysis was performed using the BD FACSCanto II flow cytometer, and the results were analysed with FACSDiva software (both from BD Biosciences Systems, San Jose, CA).

fibroblast cells = test: MTT cell viability assay, fibroblasts
Protocol: (§2) MCF-7, MDA-MB-231 (both human breast cancer cell lines), and fibroblast cells were obtained from American Type Culture Collection (ATCC, Manassas, VA, USA). DMEM and FBS used in a cell culture were from Gibco (USA). Glutamine, penicillin, and streptomycin were obtained from Quality Biologicals Inc. (USA). DMEM media was blended with 50 units/ml of penicillin, 50 μg/ml of streptomycin, 10% of FBS. All cell lines were cultured in 5% CO2 and fully humidified at 37 °C. Cells were cultured in Costar flasks and sub-confluent cells were detached with 0.05% trypsin and 0.02% ethylenediaminetetraacetic acid in calcium-free phosphate-buffered saline (PBS), counted in hemocytometers, and plated at 5 × 10^5 cells/well of six-well plates (Thermo Scientific, New York, NY, USA) in 2 ml of growth medium (DMEM without phenol red with 10% CPSR1). Cells reached about 80% of confluency at day 2, and in most cases such cells were used for the assays.
(§3) The viability of cultured cells was decided through assaying the reduction of MTT to formazan. In brief, MCF-7, MDA-MB-231, and fibroblast cells line were seeded at an initial density of 1 × 10^5 cells per well. Then, the cells were incubated at 37 °C for 24 h. Subsequently, cultured cells were treated with a medium containing concentrations (5, 10, 20, 30, 40, and 50 μM) of PtPz1–PtPz6 for 24 h and 48 h. After the incubation period, MTT was added into all wells in the final concentration of 0.5 mg/ml. After that, the cells were incubated at 37 °C for 4 h. Then, by removing the medium, 200 μl of DMSO was added to all wells. As a result, insoluble formazan was dissolved in DMSO (0.5%). At 570 nm (630 nm as a reference), the absorbance was measured in an Evolution 201 reader (Thermo Scientific, Waltham, MA).

[2] = test system: MCF-7 breast cancer cells; test: MTT cell viability assay, MCF-7
Protocol: as §2, §3

[3] = test system: caspase-3 in MDA-MB-231 breast cancer cells; test: FLICA caspase-3 activity, flow cytometry, MDA-MB-231; conditions: MDA-MB-231, 20 μM, 24 h
Protocol: as §1, with “Caspase-3” for “Caspase-8”, “3” for “8”, “cultured” for “cultured MCF-7 and”

[4] = test system: caspase-9 in MDA-MB-231 breast cancer cells; test: FLICA caspase-9 activity, flow cytometry, MDA-MB-231; conditions: MDA-MB-231, 20 μM, 24 h
Protocol: as §1, with “Caspase-9” for “Caspase-8”, “9” for “8”, “re-suspended” for “re-suspended the”

[5] = test system: MDA-MB-231 breast cancer cells; test: MTT cell viability assay, MDA-MB-231
Protocol: as §2, §3

[6] = test system: MCF-7 breast cancer cells; test: DNA fragmentation TUNEL assay, MCF-7; conditions: MCF-7, 20 μM, 24 h; control 4.0%
Protocol: DNA fragmentation associated with apoptosis was examined by the terminal deoxynucleotidyltransferase (TdT)- mediated dUTP nick end labeling (TUNEL) method using a commercial assay kit (APO-Direct Kit; BD Pharmingen, San Diego, CA). After treatment, the cells were fixed with 1% paraformaldehyde in PBS (4°C, 30 min), washed in PBS, and permeabilised with ice-cold 70% ethanol. The APO-Direct Kit TUNEL assay was performed as described by the manufacturer. Briefly, the fixed cells were washed twice using the kit wash buffer, and after centrifugation the supernatant was discarded. The DNA labeling solution (containing TdT enzyme and FITC-dUTP) was added to the cell pellet, and the re-suspended mixture was incubated for 1 h at 37°C with occasional shaking. At the end of incubation time, rinse buffer was added, and after centrifugation the supernatant was discarded. We repeated the cell rinsing with rinse buffer, and then suspended the cell pellet in PI/RNase staining buffer. Cells were incubated at room temperature for 30 min and immediately analysed in a BD FACSCanto II flow cytometer. In total, 10,000 events were collected per test sample. The results were analysed with FACSDiva software (both from BD Biosciences Systems, San Jose, CA). The percentage of cells with distinctive apoptotic DNA strand breaks and distinguished by green fluorescent emission was calculated.

[7] = 24 h incubation, 5-50 μM, read-out: IC50 (cell viability, MTT)
[8] = 48 h incubation, 5-50 μM, read-out: IC50 (cell viability, MTT)
[9] = MCF-7, 24 h incubation, 5-50 μM, read-out: IC50 (cell viability, MTT)
[10] = MCF-7, 48 h incubation, 5-50 μM, read-out: IC50 (cell viability, MTT)
[11] = MDA-MB-231, 24 h incubation, 5-50 μM, read-out: IC50 (cell viability, MTT)
[12] = MDA-MB-231, 48 h incubation, 5-50 μM, read-out: IC50 (cell viability, MTT)

Row | Structure (SMILES) | percent of cells with active caspase-8 [1] [%] | IC50 (fibroblast cells; [7]) [µM] | IC50 (fibroblast cells; [8]) [µM] | IC50 [2, 9] [µM] | IC50 [2, 10] [µM] | percent of cells with active caspase-3 [3] [%] | percent of cells with active caspase-9 [4] [%] | IC50 [5, 11] [µM] | IC50 [5, 12] [µM] | percent of TUNEL positive cells [6] [%] | increase in caspase-8 activity compared with the control [1] | increase in caspase-3 activity compared with untreated cells [3] | IC50 (fibroblast cells; read-out: IC50 (additional test for cisplatin), 24 h, additional test in concentrations allowing to determine IC50) [µM] | IC50 (fibroblast cells; read-out: IC50 (additional test for cisplatin), 48 h, additional test in concentrations allowing to determine IC50) [µM] | IC50 ([2]; read-out: IC50 (additional test for cisplatin), MCF-7, 24 h, additional test in concentrations allowing to determine IC50) [µM] | IC50 ([2]; read-out: IC50 (additional test for cisplatin), MCF-7, 48 h, additional test in concentrations allowing to determine IC50) [µM] | IC50 ([5]; read-out: IC50 (additional test for cisplatin), MDA-MB-231, 24 h, additional test in concentrations allowing to determine IC50) [µM] | IC50 ([5]; read-out: IC50 (additional test for cisplatin), MDA-MB-231, 48 h, additional test in concentrations allowing to determine IC50) [µM]
1 | CCn1ccc[n+]1[Pt-2]1([n+]2cccn2CC)[N](c2ccc(C(=N)N)cc2)N=[N+](c2ccc(C(=N)N)cc2)[Pt-2]([n+]2cccn2CC)([n+]2cccn2CC)[N](c2ccc(C(=N)N)cc2)N=[N+]1c1ccc(C(=N)N)cc1.Cl.Cl.Cl.Cl.O.O [PtPz6, [Pt2(N-ethylpyrazole)4(berenil)2]·4HCl·2H2O] | 21.1 | > 50 | > 50 | > 50 | 48 ± 2 | 11.0 | 24.6 | > 50 | 39 ± 2 | 14.2 | – | – | – | – | – | – | – | –
2 | Cc1c[nH][n+]([Pt-2]2([n+]3[nH]cc(C)c3C)[N](c3ccc(C(=N)N)cc3)N=[N+](c3ccc(C(=N)N)cc3)[Pt-2]([n+]3[nH]cc(C)c3C)([n+]3[nH]cc(C)c3C)[N](c3ccc(C(=N)N)cc3)N=[N+]2c2ccc(C(=N)N)cc2)c1C.Cl.Cl.Cl.Cl.O.O [PtPz3, [Pt2(3,4-dimethylpyrazole)4(berenil)2]·4HCl·2H2O] | 38.0 | 32 ± 1 | 28 ± 1 | 23 ± 1 | 18 ± 1 | 22.9 | 41.1 | 20 ± 2 | 16 ± 1 | 46.5 | – | – | – | – | – | – | – | –
3 | Cc1cc(C)[n+]([Pt-2]2([n+]3[nH]c(C)cc3C)[N](c3ccc(C(=N)N)cc3)N=[N+](c3ccc(C(=N)N)cc3)[Pt-2]([n+]3[nH]c(C)cc3C)([n+]3[nH]c(C)cc3C)[N](c3ccc(C(=N)N)cc3)N=[N+]2c2ccc(C(=N)N)cc2)[nH]1.Cl.Cl.Cl.Cl.O.O [PtPz2, [Pt2(3,5-dimethylpyrazole)4(berenil)2]·4HCl·2H2O] | 45.8 | 27 ± 2 | 24 ± 2 | 20 ± 2 | 13 ± 2 | 28.9 | 46.5 | 17 ± 2 | 11 ± 1 | 47.5 | about 10 fold | nine-fold increase | – | – | – | – | – | –
4 | N.N.[Cl][Pt][Cl] [cisplatin, reference compound] | 9.7 | – | > 50 | > 50 | > 50 | 6.4 | 7.3 | > 50 | > 50 | 10.9 | – | – | > 100 | > 100 | 93 ± 2 | 78 ± 1 | 82 ± 2 | 72 ± 1
5 | Cc1cc(C)[n+]([Pt-2]2([n+]3c(C)cc(C)n3CO)[N](c3ccc(C(=N)N)cc3)N=[N+](c3ccc(C(=N)N)cc3)[Pt-2]([n+]3c(C)cc(C)n3CO)([n+]3c(C)cc(C)n3CO)[N](c3ccc(C(=N)N)cc3)N=[N+]2c2ccc(C(=N)N)cc2)n1CO.Cl.Cl.Cl.Cl.O.O [PtPz1, [Pt2(N-hydroxymethyl-3,5-dimethylpyrazole)4(berenil)2]·4HCl·2H2O] | 48.9 | 24 ± 3 | 19 ± 2 | 17 ± 2 | 11 ± 1 | 30.6 | 47.9 | 16 ± 1 | 10 ± 1 | 55.7 | about 10 fold | nine-fold increase | – | – | – | – | – | –
6 | Cc1ccn[nH]1.Cc1ccn[nH]1.Cc1ccn[nH]1.Cc1ccn[nH]1.Cl.Cl.Cl.Cl.N=C(N)c1ccc(N=N[N]([Pt])c2ccc(C(=N)N)cc2)cc1.N=C(N)c1ccc(N=N[N]([Pt])c2ccc(C(=N)N)cc2)cc1.O.O [PtPz5, [Pt2(5-methylpyrazole)4(berenil)2]·4HCl·2H2O] | 37.9 | 35 ± 1 | 31 ± 2 | 28 ± 2 | 22 ± 2 | 21.0 | 38.6 | 29 ± 1 | 19 ± 2 | 32.1 | – | – | – | – | – | – | – | –
